Data taken from patent publication US20080085884A1, “Melanin Concentrating Hormone Receptor-1 Antagonist Pyridinones” (Pfizer Inc, priority 2006, published 2008).

Target: T1, human MCHR1 (Homo sapiens, UniProt Q99705)
T1 construct: host or cells: CHO
Assay: Cyclic AMP assay (MCHR-1 functional antagonism)
Assay type: cell-based
Conditions: CHO cells stably expressing human MCHR1; cAMP accumulation with 25 uM forskolin and 0.2 nM MCH, 90 min; Ki from IC50 by Cheng-Prusoff; read-out: MCHR-1 functional Ki
Description: CHO cell lines stably expressing the human MCHR1 (Euroscreen, Brussels, Belgium) were maintained in DMEM containing Glutamax (Invitrogen, Carlsbad, Calif.), 10% FBS, 400 ug/ml Geneticin.
Cyclic AMP assays. CHO cells stably expressing the human MCHR1 receptors were collected and resuspended at a density of 4.0×10^6 cells/ml in F12 (Hams) media and seeded (20,000 cells per well) into 384-well, solid white Greiner assay plates. […] Cells were incubated at 37° C./5% CO2 for 90 minutes and cAMP accumulation subsequently determined by DiscoveRx Hithunter c-AMP II Assay kit (GE Healthcare, Buckinghamshire, UK) in accordance with manufactures instructions. Luminescence was measured on a LEADseaker imaging system (GE Healthcare, Buckinghamshire, UK). IC50 values were calculated from dose-response data fit using an in-house computer graphics and statistics program.

T1 sequence (Q99705 whole entry): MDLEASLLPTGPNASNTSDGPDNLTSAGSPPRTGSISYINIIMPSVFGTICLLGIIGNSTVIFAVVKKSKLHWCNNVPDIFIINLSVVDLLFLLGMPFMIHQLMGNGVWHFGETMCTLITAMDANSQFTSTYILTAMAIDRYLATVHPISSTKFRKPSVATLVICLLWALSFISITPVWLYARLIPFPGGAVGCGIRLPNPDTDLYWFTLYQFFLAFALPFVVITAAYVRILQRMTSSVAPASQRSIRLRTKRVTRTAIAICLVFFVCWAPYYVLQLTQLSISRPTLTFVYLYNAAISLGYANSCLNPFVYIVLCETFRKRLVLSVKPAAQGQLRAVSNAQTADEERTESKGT

| SMILES | Ki |
| --- | --- |
| CN[C@H]1CCN(c2ccc(-n3ccc(COc4ccccc4)cc3=O)cn2)C1 [Example 122] | 110 nM |
| O=c1cc(OCc2cccc(Cl)c2)ccn1-c1ccc(N2CC[C@@H](O)C2)nc1 [Example 144] | 69.9 nM |
| O=c1cc(OCc2ccccc2Cl)ccn1-c1ccc(N2CC[C@@H](O)C2)nc1 [Example 145] | 98.5 nM |
| O=c1cc(OCc2ccc(Cl)c(F)c2)ccn1-c1ccc(N2CC[C@@H](O)C2)nc1 [Example 146] | 60.1 nM |
| O=c1cc(OCc2ccc(F)c(F)c2)ccn1-c1ccc(N2CC[C@@H](O)C2)nc1 [Example 148] | 125 nM |
| CN(C(=O)OC(C)(C)C)[C@H]1CCN(c2ccc(-n3ccc(OCc4ccccc4)cc3=O)nn2)C1 [Example 156] | 230 nM |
| O=c1cc(OCc2ccccc2)ccn1-c1ccc(N2CC[C@@H](O)C2)nn1 [Example 157] | 3160 nM |
| CC(=O)N1C[C@@H]2CN(c3ccc(-n4ccc(OCc5ccccc5)cc4=O)cn3)C[C@@H]2C1 [Example 158] | 49.8 nM |
| CCN(C(C)=O)[C@@H]1CCN(c2ccc(-n3ccc(OCc4ccccc4)cc3=O)cn2)C1 [Example 160] | 26.8 nM |
| CCN(C(C)=O)[C@H]1CCN(c2ccc(-n3ccc(OCc4ccccc4)cc3=O)cn2)C1 [Example 161] | 33.3 nM |
| CC(=O)N[C@H]1CCN(c2ccc(-n3ccc(OCc4ccccc4)cc3=O)cn2)C1 [Example 162] | 30.9 nM |
| CC(=O)N1C[C@@H]2CN(c3ccc(-n4ccc(OCc5ccc(F)cc5)cc4=O)cn3)C[C@@H]2C1 [Example 164] | 66.8 nM |
| CC(=O)N(C)C1CCN(c2ccc(-n3ccc(OCc4ccccc4)cc3=O)cn2)CC1 [Example 165] | 29.2 nM |
| CC(C)C(=O)N1CCN(c2ccc(-n3ccc(OCc4ccccc4)cc3=O)cn2)CC1 [Example 166] | 1210 nM |
| CCC(=O)N1CCN(c2ccc(-n3ccc(OCc4ccccc4)cc3=O)cn2)CC1 [Example 167] | 749 nM |
| CCC(=O)N1CCN(c2ccc(-n3ccc(OCc4ccc(F)cc4)cc3=O)cn2)CC1 [Example 168] | 539 nM |
| CC(C)C(=O)N1C[C@@H]2CN(c3ccc(-n4ccc(OCc5ccc(F)cc5)cc4=O)cn3)C[C@@H]2C1 [Example 170] | 29.1 nM |
| CCC(=O)N1C[C@@H]2CN(c3ccc(-n4ccc(OCc5ccc(F)cc5)cc4=O)cn3)C[C@@H]2C1 [Example 171] | 38.1 nM |
| CC(=O)N[C@@H]1CCN(c2ccc(-n3ccc(OCc4ccc(Cl)cc4)cc3=O)cn2)C1 [Example 175] | 58.5 nM |
| CCOC(=O)N[C@H]1CCN(c2ccc(-n3ccc(OCc4ccccc4)cc3=O)cn2)C1 [Example 176] | 29.9 nM |
| COC(=O)N[C@H]1CCN(c2ccc(-n3ccc(OCc4ccc(F)cc4)cc3=O)cn2)C1 [Example 186] | 29.8 nM |

| SMILES | Ki |
| --- | --- |
| COC(=O)N[C@@H]1CCN(c2ccc(-n3ccc(OCc4ccccc4)cc3=O)cn2)C1 [Example 188] | 218 nM |
| COC(=O)N[C@@H]1CCN(c2ccc(-n3ccc(OCc4ccc(F)cc4)cc3=O)cn2)C1 [Example 192] | 144 nM |
| COC(=O)NC1CN(c2ccc(-n3ccc(OCc4ccc(F)cc4)cc3=O)cn2)C1 [Example 193] | 196 nM |
| COC(=O)N[C@H]1CCN(c2ccc(-n3ccc(OCc4ccc(Cl)cc4)cc3=O)cn2)C1 [Example 194] | 46.6 nM |
| COC(=O)N1C[C@@H]2CN(c3ccc(-n4ccc(OCc5ccc(F)cc5)cc4=O)cn3)C[C@@H]2C1 [Example 195] | 31.3 nM |
| CCC(=O)N[C@@H]1CCN(c2ccc(-n3ccc(OCc4ccccc4)cc3=O)cn2)C1 [Example 196] | 605 nM |
| O=c1cc(OCc2ccc(Cl)c(Cl)c2)ccn1-c1ccc(N2CC[C@@H](O)C2)nc1 [Example 204] | 330 nM |
| O=c1cc(OCc2cccc(Cl)c2Cl)ccn1-c1ccc(N2CC[C@@H](O)C2)nc1 [Example 205] | 498 nM |
| O=c1cc(OCc2ccc(F)c(Cl)c2)ccn1-c1ccc(N2CC[C@@H](O)C2)nc1 [Example 206] | 250 nM |
| NC1CCN(c2ccc(-n3ccc(OCc4ccccc4)cc3=O)cn2)CC1 [Example 214] | 106 nM |
| O=c1cc(OCc2ccccc2)ccn1-c1ccc(N2CCCNCC2)nc1 [Example 216] | 78 nM |
| O=c1cc(OCc2ccccc2)ccn1-c1ccc(N2CC3CCC(C2)N3)nc1 [Example 220] | 513 nM |
| CC(C)C1CN(c2ccc(-n3ccc(OCc4ccccc4)cc3=O)cn2)CCN1 (stereo not shown) [Example 221] | 126 nM |
| CC(C)CC1CN(c2ccc(-n3ccc(OCc4ccccc4)cc3=O)cn2)CCN1 (stereo not shown) [Example 222] | 680 nM |
| CCC1CN(c2ccc(-n3ccc(OCc4ccccc4)cc3=O)cn2)CCN1 (stereo not shown) [Example 223] | 197 nM |
| CNC1CCN(c2ccc(-n3ccc(OCc4ccccc4)cc3=O)cn2)CC1 [Example 230] | 69.8 nM |
| O=c1cc(OCc2ccccc2)ccn1-c1ccc(N2C[C@H]3C[C@@H]2CN3)nc1 [Example 231] | 752 nM |
| NC1CN(c2ccc(-n3ccc(OCc4ccccc4)cc3=O)cn2)C1 [Example 232] | 238 nM |
| CN(C)C1CN(c2ccc(-n3ccc(OCc4ccccc4)cc3=O)cn2)C1 [Example 239] | 41.2 nM |
| CC1(O)CCN(c2ccc(-n3ccc(OCc4ccccc4)cc3=O)cn2)C1 (stereo not shown) [Example 240] | 77.5 nM |

Next, values leading:

| Ki | SMILES |
| --- | --- |
| 26.2 nM | O=c1cc(OCc2ccc(Cl)cc2F)ccn1-c1ccc(N2CC[C@@H](O)C2)nc1 [Example 147] |
| 3.46 nM | CN[C@H]1CCN(c2ccc(-n3ccc(OCc4cccc(Cl)c4)cc3=O)cn2)C1 [Example 149] |
| 3.47 nM | CN[C@H]1CCN(c2ccc(-n3ccc(OCc4ccc(F)c(F)c4)cc3=O)cn2)C1 [Example 150] |
| 6.04 nM | CN[C@H]1CCN(c2ccc(-n3ccc(OCc4ccccc4Cl)cc3=O)cn2)C1 [Example 151] |
| 2.31 nM | CN[C@H]1CCN(c2ccc(-n3ccc(OCc4ccc(Cl)c(F)c4)cc3=O)cn2)C1 [Example 152] |
| 2.02 nM | CN[C@H]1CCN(c2ccc(-n3ccc(OCc4ccc(Cl)cc4F)cc3=O)cn2)C1 [Example 153] |
| 19.4 nM | CCCC(=O)N[C@H]1CCN(c2ccc(-n3ccc(OCc4ccccc4)cc3=O)cn2)C1 [Example 169] |
| 11 nM | CC(=O)N(C)[C@@H]1CCN(c2ccc(-n3ccc(OCc4ccc(Cl)cc4)cc3=O)cn2)C1 [Example 172] |
| 13.1 nM | CC(=O)N(C)[C@H]1CCN(c2ccc(-n3ccc(OCc4ccc(Cl)cc4)cc3=O)cn2)C1 [Example 173] |
| 26.2 nM | CC(=O)N[C@H]1CCN(c2ccc(-n3ccc(OCc4ccc(Cl)cc4)cc3=O)cn2)C1 [Example 174] |
| 19.3 nM | CCN(C(=O)OC)[C@H]1CCN(c2ccc(-n3ccc(OCc4ccccc4)cc3=O)cn2)C1 [Example 177] |
| 19.2 nM | CCN(C(=O)OC)[C@@H]1CCN(c2ccc(-n3ccc(OCc4ccccc4)cc3=O)cn2)C1 [Example 178] |
| 18.9 nM | COC(=O)N(C)[C@@H]1CCN(c2ccc(-n3ccc(OCc4ccc(F)cc4)cc3=O)cn2)C1 [Example 179] |
| 22.2 nM | COC(=O)N(C)[C@H]1CCN(c2ccc(-n3ccc(OCc4ccc(F)cc4)cc3=O)cn2)C1 [Example 180] |
| 10.9 nM | COC(=O)N(C)[C@H]1CCN(c2ccc(-n3ccc(OCc4ccccc4)cc3=O)cn2)C1 [Example 181] |
| 24.1 nM | COC(=O)N(C)[C@@H]1CCN(c2ccc(-n3ccc(OCc4ccccc4)cc3=O)cn2)C1 [Example 187] |
| 7.7 nM | CN(C(=O)OC(C)(C)C)[C@@H]1CCN(c2ccc(-n3ccc(OCc4ccc(Cl)cc4)cc3=O)cn2)C1 [Example 197] |
| 10.6 nM | CN(C(=O)OC(C)(C)C)[C@H]1CCN(c2ccc(-n3ccc(OCc4ccc(Cl)cc4)cc3=O)cn2)C1 [Example 198] |
| 6.51 nM | CC(C)N1C[C@H]2CN(c3ccc(-n4ccc(OCc5ccc(F)cc5)cc4=O)cn3)C[C@H]2C1 [Example 207] |
| 2.72 nM | O=c1cc(OCc2ccc(F)cc2)ccn1-c1ccc(N2C[C@@H]3CN(C4CCC4)C[C@@H]3C2)nc1 [Example 208] |
| 10.6 nM | CC(C)N1C[C@H]2CN(c3ccc(-n4ccc(OCc5ccccc5)cc4=O)cn3)C[C@H]2C1 [Example 209] |
| 4.56 nM | O=c1cc(OCc2ccccc2)ccn1-c1ccc(N2C[C@@H]3CN(C4CCC4)C[C@@H]3C2)nc1 [Example 210] |
| 11 nM | N[C@@H]1[C@H]2CN(c3ccc(-n4ccc(OCc5ccccc5)cc4=O)cn3)C[C@@H]12 [Example 217] |
| 8.45 nM | O=c1cc(OCc2ccccc2)ccn1-c1ccc(N2CCC3(CCNC3)C2)nc1 (stereo not shown) [Example 219] |
| 17.6 nM | COCC1CCCN(c2ccc(-n3ccc(OCc4ccccc4)cc3=O)cn2)CC1 (stereo not shown) [Example 233] |
| 10.9 nM | CO[C@@H]1CCN(c2ccc(-n3ccc(OCc4ccccc4)cc3=O)cn2)C1 [Example 235] |
